Data taken from patent US6806230B1, “Pyrimidine derivatives and herbicides containing them” (Kumiai Chemical Industry Co., Ltd., priority 1999, dated 2004).

Tested on: monochoria (Mo)
Test: Test Example 1: herbicidal effects by flooded paddy field treatment
Type: in vivo
Design: herbicidal effects, Mo (monochoria):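 0-5 growth inhibition grade; 5 = over 90%; 4 = 70-90%; 3 = 50-70%; 2 = 30-50%; 1 = 10-30%; 0 = under 10%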
Conditions: dose 100 g active ingredient per 10 ares, examined on the 21st day after treatment, standards of Table 44
Outline: (§1)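 Flooded paddy pre-emergence test: sowing into puddled soil under 3 cm water, then dropwise water-surface treatment the following day with diluted wettable powder at 100 g active ingredient per 10 ares. Greenhouse cultivation followed, and weeds were rated against a standard scale at 21 days.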

Compound | herbicidal effects, Mo (monochoria)
CN(C(=O)Cc1ccccc1)C(c1cncnc1C(F)(F)F)C1CCCC1 (racemic) [Compound 1-137] | 5
CC(C)C(c1cncnc1C(F)(F)F)N(C)C(=S)Cc1ccc(Cl)cc1 (racemic) [Compound 1-144] | 5
CSc1ncncc1C(C(C)C)N(C)C(=O)Cc1ccc(C)cc1 (racemic) [Compound 1-153] | 5
CN(C(=O)Cc1ccc(F)cc1)C(c1ccc(F)cc1)c1cncnc1C(F)(F)F (racemic) [1-218] | 5
C#CCN(C(=O)Cc1ccc(F)cc1)C(c1cncnc1C(F)(F)F)C(C)C (racemic) [Compound 1-172] | 5
CN(C(=O)Cc1ccccc1)C(c1ccccc1)c1cncnc1C(F)(F)F (racemic) [1-186] | 5
CN(C(=O)Cc1ccccc1)C(c1cncnc1C(F)(F)F)C(C)(C)C (racemic) [1-196] | 5
CSc1ncncc1C(C(C)C)N(C)C(=O)Cc1ccc(F)cc1 (racemic) [Compound 1-152] | 5
Cc1ccc(CC(=O)N(C)C(c2ccc(F)cc2)c2cncnc2C(F)(F)F)cc1 (racemic) [1-220] | 5
CC(C)C(c1cncnc1C(F)(F)F)N(C)C(=O)COc1cccc(Cl)c1 (racemic) [Compound 1-133] | 5

Tested on: barnyard grass (Ec)
Test: Test Example 3: herbicidal effects by foliage treatment in upland field
Type: in vivo
Design: scale not given here
Conditions: dose 100 g active ingredient per 10 ares, examined on the 14th day after treatment
Outline: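 Barnyard grass and green foxtail were grown in upland soil for 2 weeks in a greenhouse. A water-diluted wettable powder was sprayed over the foliage at 100 l per 10 ares, giving 100 g active ingredient per 10 ares. Herbicidal effect was scored on day 14 after treatment.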

Compound | Ec (herbicidal effects, index)
CN(C(=O)Cc1ccccc1)C(c1cncnc1C(F)(F)F)C1CCCC1 (racemic) [Compound 1-137] | 5
CC(C)C(c1cncnc1C(F)(F)F)N(C)C(=S)Cc1ccc(Cl)cc1 (racemic) [Compound 1-144] | 4
CSc1ncncc1C(C(C)C)N(C)C(=O)Cc1ccc(C)cc1 (racemic) [Compound 1-153] | 4
CN(C(=O)Cc1ccc(F)cc1)C(c1ccc(F)cc1)c1cncnc1C(F)(F)F (racemic) [1-218] | 4
C#CCN(C(=O)Cc1ccc(F)cc1)C(c1cncnc1C(F)(F)F)C(C)C (racemic) [Compound 1-172] | 5
CN(C(=O)Cc1ccccc1)C(c1ccccc1)c1cncnc1C(F)(F)F (racemic) [1-186] | 5
CN(C(=O)Cc1ccccc1)C(c1cncnc1C(F)(F)F)C(C)(C)C (racemic) [1-196] | 5
CSc1ncncc1C(C(C)C)N(C)C(=O)Cc1ccc(F)cc1 (racemic) [Compound 1-152] | 4
Cc1ccc(CC(=O)N(C)C(c2ccc(F)cc2)c2cncnc2C(F)(F)F)cc1 (racemic) [1-220] | 5
CC(C)C(c1cncnc1C(F)(F)F)N(C)C(=O)COc1cccc(Cl)c1 (racemic) [Compound 1-133] | 5

Tested on: monochoria (Mo)
Test: Test Example 4: selectivity for a crop plant by flooded paddy field treatment
Type: in vivo
Design: scale not given here
Conditions: monochoria, dose 25 gai/10a, 21st day after treatment, index per Table 44
Outline: (§2)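 Steps: fill pot with paddy soil and puddle; sow weed seeds; transplant rice at second-leaf stage; flood to 3 cm. Next day, drip the water-diluted wettable powder onto the water (25 g a.i./10 ares). Grow in greenhouse and rate herbicidal effect on day 21.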

Compound | Mo (herbicidal effect index)
CN(C(=O)Cc1ccccc1)C(c1cncnc1C(F)(F)F)C1CCCC1 (racemic) [Compound 1-137] | 5
CC(C)C(c1cncnc1C(F)(F)F)N(C)C(=S)Cc1ccc(Cl)cc1 (racemic) [Compound 1-144] | 5
CSc1ncncc1C(C(C)C)N(C)C(=O)Cc1ccc(C)cc1 (racemic) [Compound 1-153] | 5
CN(C(=O)Cc1ccc(F)cc1)C(c1ccc(F)cc1)c1cncnc1C(F)(F)F (racemic) [1-218] | 5
C#CCN(C(=O)Cc1ccc(F)cc1)C(c1cncnc1C(F)(F)F)C(C)C (racemic) [Compound 1-172] | 5
CSc1ncncc1C(C(C)C)N(C)C(=O)Cc1ccc(F)cc1 (racemic) [Compound 1-152] | 5
Cc1ccc(CC(=O)N(C)C(c2ccc(F)cc2)c2cncnc2C(F)(F)F)cc1 (racemic) [1-220] | 5
CC(C)C(c1cncnc1C(F)(F)F)N(C)C(=O)COc1cccc(Cl)c1 (racemic) [Compound 1-133] | 5

Tested on: rice (Or)
Test: as above
Type: in vivo
Design: scale not given here
Conditions: rice transplanted at second leaf stage, dose 25 gai/10a, 21st day after treatment, index per Table 44
Outline: as §2

Compound | Or (herbicidal effect index on crop)
CN(C(=O)Cc1ccccc1)C(c1cncnc1C(F)(F)F)C1CCCC1 (racemic) [Compound 1-137] | 1
CC(C)C(c1cncnc1C(F)(F)F)N(C)C(=S)Cc1ccc(Cl)cc1 (racemic) [Compound 1-144] | 1
CSc1ncncc1C(C(C)C)N(C)C(=O)Cc1ccc(C)cc1 (racemic) [Compound 1-153] | 1
CN(C(=O)Cc1ccc(F)cc1)C(c1ccc(F)cc1)c1cncnc1C(F)(F)F (racemic) [1-218] | 1
C#CCN(C(=O)Cc1ccc(F)cc1)C(c1cncnc1C(F)(F)F)C(C)C (racemic) [Compound 1-172] | 1
CSc1ncncc1C(C(C)C)N(C)C(=O)Cc1ccc(F)cc1 (racemic) [Compound 1-152] | 1
Cc1ccc(CC(=O)N(C)C(c2ccc(F)cc2)c2cncnc2C(F)(F)F)cc1 (racemic) [1-220] | 1
CC(C)C(c1cncnc1C(F)(F)F)N(C)C(=O)COc1cccc(Cl)c1 (racemic) [Compound 1-133] | 1

Tested on: barnyard grass (Eo)
Test: as above
Type: in vivo
Design: scale not given here
Conditions: barnyard grass, dose 25 gai/10a, 21st day after treatment, index per Table 44
Outline: as §2

Compound | Eo (herbicidal effect index)
CN(C(=O)Cc1ccccc1)C(c1cncnc1C(F)(F)F)C1CCCC1 (racemic) [Compound 1-137] | 5
CC(C)C(c1cncnc1C(F)(F)F)N(C)C(=S)Cc1ccc(Cl)cc1 (racemic) [Compound 1-144] | 5
CSc1ncncc1C(C(C)C)N(C)C(=O)Cc1ccc(C)cc1 (racemic) [Compound 1-153] | 5
CN(C(=O)Cc1ccc(F)cc1)C(c1ccc(F)cc1)c1cncnc1C(F)(F)F (racemic) [1-218] | 5
C#CCN(C(=O)Cc1ccc(F)cc1)C(c1cncnc1C(F)(F)F)C(C)C (racemic) [Compound 1-172] | 5
CSc1ncncc1C(C(C)C)N(C)C(=O)Cc1ccc(F)cc1 (racemic) [Compound 1-152] | 5
Cc1ccc(CC(=O)N(C)C(c2ccc(F)cc2)c2cncnc2C(F)(F)F)cc1 (racemic) [1-220] | 5
CC(C)C(c1cncnc1C(F)(F)F)N(C)C(=O)COc1cccc(Cl)c1 (racemic) [Compound 1-133] | 5

Tested on: green foxtail (Se)
Test: Test Example 2: herbicidal effects by upland soil treatment;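 for herbicidal effects, Se (green foxtail): 0-5 growth inhibition grade; 5 = over 90%; 4 = 70-90%; 3 = 50-70%; 2 = 30-50%; 1 = 10-30%; 0 = under 10%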
Type: in vivo
Conditions: dose 100 g active ingredient per 10 ares, examined on the 21st day after treatment, standards of Table 44
Outline: (§3)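 Pre-emergence test: barnyard grass and green foxtail sown in upland soil, then soil surface sprayed with wettable-powder formulation at 100 g active ingredient per 10 ares (100 l per 10 ares). Grown in greenhouse; herbicidal effect scored on a rating scale 21 days after treatment.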

Compound | herbicidal effects, Se (green foxtail)
CN(C(=O)Cc1ccccc1)C(c1cncnc1C(F)(F)F)C1CCCC1 (racemic) [Compound 1-137] | 5
CC(C)C(c1cncnc1C(F)(F)F)N(C)C(=S)Cc1ccc(Cl)cc1 (racemic) [Compound 1-144] | 5
CSc1ncncc1C(C(C)C)N(C)C(=O)Cc1ccc(C)cc1 (racemic) [Compound 1-153] | 5
CN(C(=O)Cc1ccc(F)cc1)C(c1ccc(F)cc1)c1cncnc1C(F)(F)F (racemic) [1-218] | 5
C#CCN(C(=O)Cc1ccc(F)cc1)C(c1cncnc1C(F)(F)F)C(C)C (racemic) [Compound 1-172] | 5
CN(C(=O)Cc1ccccc1)C(c1ccccc1)c1cncnc1C(F)(F)F (racemic) [1-186] | 5
CN(C(=O)Cc1ccccc1)C(c1cncnc1C(F)(F)F)C(C)(C)C (racemic) [1-196] | 5
CSc1ncncc1C(C(C)C)N(C)C(=O)Cc1ccc(F)cc1 (racemic) [Compound 1-152] | 5
Cc1ccc(CC(=O)N(C)C(c2ccc(F)cc2)c2cncnc2C(F)(F)F)cc1 (racemic) [1-220] | 5
CC(C)C(c1cncnc1C(F)(F)F)N(C)C(=O)COc1cccc(Cl)c1 (racemic) [Compound 1-133] | 5

Tested on: barnyard grass (Ec)
Test: as above
Type: in vivo
Design: scale not given here
Conditions: dose 100 g active ingredient per 10 ares, examined on the 21st day after treatment, standards of Table 44
Outline: as §3

Compound | herbicidal effects, Ec (barnyard grass)
CN(C(=O)Cc1ccccc1)C(c1cncnc1C(F)(F)F)C1CCCC1 (racemic) [Compound 1-137] | 5
CC(C)C(c1cncnc1C(F)(F)F)N(C)C(=S)Cc1ccc(Cl)cc1 (racemic) [Compound 1-144] | 5
CSc1ncncc1C(C(C)C)N(C)C(=O)Cc1ccc(C)cc1 (racemic) [Compound 1-153] | 5
CN(C(=O)Cc1ccc(F)cc1)C(c1ccc(F)cc1)c1cncnc1C(F)(F)F (racemic) [1-218] | 5
C#CCN(C(=O)Cc1ccc(F)cc1)C(c1cncnc1C(F)(F)F)C(C)C (racemic) [Compound 1-172] | 5
CN(C(=O)Cc1ccccc1)C(c1ccccc1)c1cncnc1C(F)(F)F (racemic) [1-186] | 5
CN(C(=O)Cc1ccccc1)C(c1cncnc1C(F)(F)F)C(C)(C)C (racemic) [1-196] | 5
CSc1ncncc1C(C(C)C)N(C)C(=O)Cc1ccc(F)cc1 (racemic) [Compound 1-152] | 5
Cc1ccc(CC(=O)N(C)C(c2ccc(F)cc2)c2cncnc2C(F)(F)F)cc1 (racemic) [1-220] | 5
CC(C)C(c1cncnc1C(F)(F)F)N(C)C(=O)COc1cccc(Cl)c1 (racemic) [Compound 1-133] | 5

Tested on: barnyard grass (Eo)
Test: Test Example 1: herbicidal effects by flooded paddy field treatment
Type: in vivo
Design: herbicidal effects, Eo (barnyard grass):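 0-5 growth inhibition grade; 5 = over 90%; 4 = 70-90%; 3 = 50-70%; 2 = 30-50%; 1 = 10-30%; 0 = under 10%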
Conditions: dose 100 g active ingredient per 10 ares, examined on the 21st day after treatment, standards of Table 44
Outline: as §1

Compound | herbicidal effects, Eo (barnyard grass)
CN(C(=O)Cc1ccccc1)C(c1cncnc1C(F)(F)F)C1CCCC1 (racemic) [Compound 1-137] | 5
CC(C)C(c1cncnc1C(F)(F)F)N(C)C(=S)Cc1ccc(Cl)cc1 (racemic) [Compound 1-144] | 5
CSc1ncncc1C(C(C)C)N(C)C(=O)Cc1ccc(C)cc1 (racemic) [Compound 1-153] | 5
CN(C(=O)Cc1ccc(F)cc1)C(c1ccc(F)cc1)c1cncnc1C(F)(F)F (racemic) [1-218] | 5
C#CCN(C(=O)Cc1ccc(F)cc1)C(c1cncnc1C(F)(F)F)C(C)C (racemic) [Compound 1-172] | 5
CN(C(=O)Cc1ccccc1)C(c1ccccc1)c1cncnc1C(F)(F)F (racemic) [1-186] | 5
CN(C(=O)Cc1ccccc1)C(c1cncnc1C(F)(F)F)C(C)(C)C (racemic) [1-196] | 5
CSc1ncncc1C(C(C)C)N(C)C(=O)Cc1ccc(F)cc1 (racemic) [Compound 1-152] | 5
Cc1ccc(CC(=O)N(C)C(c2ccc(F)cc2)c2cncnc2C(F)(F)F)cc1 (racemic) [1-220] | 5
CC(C)C(c1cncnc1C(F)(F)F)N(C)C(=O)COc1cccc(Cl)c1 (racemic) [Compound 1-133] | 5
